According to PubChem BioAssay AID248 (DTP/NCI, 2004):
Toxic doses and inconclusive results are not listed.

Test system: L1210 leukemia ip in BDF1 mice, survival T/C
Assay: NCI In Vivo Anticancer Drug Screen. Data for tumor model L1210 Leukemia (intraperitoneal) in B6D2F1 (BDF1) mice
Details: endpoint: mean survival time, higher = longer survival
How it was run: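 Each compound was tested against a transplantable tumor grown in mice. The endpoint was survival, with treated animals benchmarked against vehicle controls as a simple ratio.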

[1] = dose: 25.0 mg/kg/injection, schedule: Q04DX002 (ip), vehicle: Klucel (hydroxypropylcellulose) (HPC)
[2] = dose: 50.0 mg/kg/injection, schedule: Q04DX002 (ip), vehicle: Klucel (hydroxypropylcellulose) (HPC)
[3] = dose: 100.0 mg/kg/injection, schedule: Q04DX002 (ip), vehicle: Klucel (hydroxypropylcellulose) (HPC)
[4] = dose: 50.0 mg/kg/injection, schedule: Q01DX009 (ip), vehicle: Klucel (hydroxypropylcellulose) (HPC)
[5] = dose: 100.0 mg/kg/injection, schedule: Q01DX009 (ip), vehicle: Klucel (hydroxypropylcellulose) (HPC)
[6] = dose: 200.0 mg/kg/injection, schedule: Q01DX009 (ip), vehicle: Klucel (hydroxypropylcellulose) (HPC)
[7] = dose: 100.0 mg/kg/injection, schedule: Q01DX001 (ip), vehicle: saline
[8] = dose: 100.0 mg/kg/injection, schedule: Q01DX009 (ip), vehicle: other
[9] = dose: 200.0 mg/kg/injection, schedule: Q01DX009 (ip), vehicle: other
[10] = dose: 100.0 mg/kg/injection, schedule: Q01DX001 (ip), vehicle: carboxymethylcellulose (CMC)
[11] = dose: 200.0 mg/kg/injection, schedule: Q01DX001 (ip), vehicle: carboxymethylcellulose (CMC)
[12] = dose: 200.0 mg/kg/injection, schedule: Q01DX001 (ip), vehicle: saline
[13] = dose: 400.0 mg/kg/injection, schedule: Q01DX001 (ip), vehicle: carboxymethylcellulose (CMC)
[14] = dose: 400.0 mg/kg/injection, schedule: Q01DX001 (ip), vehicle: saline
[15] = dose: 100.0 mg/kg/injection, schedule: Q04DX003 (ip), vehicle: Klucel (hydroxypropylcellulose) (HPC)
[16] = dose: 200.0 mg/kg/injection, schedule: Q04DX003 (ip), vehicle: Klucel (hydroxypropylcellulose) (HPC)
[17] = dose: 400.0 mg/kg/injection, schedule: Q04DX003 (ip), vehicle: Klucel (hydroxypropylcellulose) (HPC)
[18] = dose: 50.0 mg/kg/injection, schedule: Q01DX009 (ip), vehicle: saline
[19] = dose: 100.0 mg/kg/injection, schedule: Q01DX009 (ip), vehicle: saline
[20] = dose: 100.0 mg/kg/injection, schedule: Q04DX003 (ip), vehicle: saline
[21] = dose: 100.0 mg/kg/injection, schedule: Q01DX001 (ip), vehicle: saline with Tween-80
[22] = dose: 200.0 mg/kg/injection, schedule: Q01DX001 (ip), vehicle: saline with Tween-80
[23] = dose: 400.0 mg/kg/injection, schedule: Q01DX001 (ip), vehicle: saline with Tween-80
[24] = dose: 100.0 mg/kg/injection, schedule: Q01DX001 (ip), vehicle: Klucel (hydroxypropylcellulose) (HPC)
[25] = dose: 200.0 mg/kg/injection, schedule: Q01DX001 (ip), vehicle: Klucel (hydroxypropylcellulose) (HPC)
[26] = dose: 400.0 mg/kg/injection, schedule: Q01DX001 (ip), vehicle: Klucel (hydroxypropylcellulose) (HPC)
[27] = dose: 200.0 mg/kg/injection, schedule: Q04DX003 (ip), vehicle: saline
[28] = dose: 400.0 mg/kg/injection, schedule: Q04DX003 (ip), vehicle: saline
[29] = dose: 200.0 mg/kg/injection, schedule: Q01DX009 (ip), vehicle: saline

FC1(F)SC2C3CCC(C3)C2C1(F)F (stereo unspecified)
T/C (dose: 6.25 mg/kg/injection, schedule: Q04DX002 (ip), vehicle: saline with Tween-80): 95 % of control
T/C (dose: 12.5 mg/kg/injection, schedule: Q04DX002 (ip), vehicle: saline with Tween-80): 95 % of control
T/C (dose: 25.0 mg/kg/injection, schedule: Q04DX002 (ip), vehicle: saline with Tween-80): 93 % of control

Cc1cc(C)c(CS)c(C)c1
T/C [1]: 98 % of control
T/C [2]: 95 % of control
T/C [3]: 98 % of control
T/C (dose: 200.0 mg/kg/injection, schedule: Q04DX002 (ip), vehicle: Klucel (hydroxypropylcellulose) (HPC)): 95 % of control
T/C (dose: 400.0 mg/kg/injection, schedule: Q04DX002 (ip), vehicle: Klucel (hydroxypropylcellulose) (HPC)): 100 % of control

CO/N=C(/c1ccccc1)c1cccc[n+]1C
T/C (dose: 18.8 mg/kg/injection, schedule: Q04DX003 (ip), vehicle: saline): 100 % of control
T/C (dose: 37.5 mg/kg/injection, schedule: Q04DX003 (ip), vehicle: saline): 103 % of control

N#Cc1c(N)ncc2c1CCCC2
T/C [4]: 102 % of control
T/C [5]: 98 % of control
T/C [6]: 105 % of control

CC[N+](C)(CC)CCNC(c1ccccc1)C(Cl)(Cl)Cl (stereo unspecified)
T/C (dose: 5.0 mg/kg/injection, schedule: Q01DX001 (ip), vehicle: saline): 92 % of control
T/C (dose: 10.0 mg/kg/injection, schedule: Q01DX001 (ip), vehicle: saline): 95 % of control
T/C (dose: 20.0 mg/kg/injection, schedule: Q01DX001 (ip), vehicle: saline): 103 % of control
T/C (dose: 40.0 mg/kg/injection, schedule: Q01DX001 (ip), vehicle: saline): 95 % of control
T/C (dose: 80.0 mg/kg/injection, schedule: Q01DX001 (ip), vehicle: saline): 106 % of control
T/C [7]: 102 % of control

CCCCCCCCCCCCCCCCCC(=O)OC1C(CO)OC2C1Oc1nc(=N)ccn12 (stereo unspecified)
T/C (dose: 12.5 mg/kg/injection, schedule: Q01DX009 (ip), vehicle: other): 165 % of control
T/C (dose: 25.0 mg/kg/injection, schedule: Q01DX009 (ip), vehicle: other): 190 % of control
T/C (dose: 50.0 mg/kg/injection, schedule: Q01DX009 (ip), vehicle: other): 235 % of control
T/C [8]: 283 % of control
T/C [9]: 120 % of control

Cc1ccc(S(=O)(=O)C2CCCC2Cl)cc1 (stereo unspecified)
T/C [10]: 109 % of control
T/C [7]: 107 % of control
T/C [11]: 104 % of control
T/C [12]: 104 % of control
T/C [13]: 104 % of control
T/C [14]: 87 % of control

COc1ccc(NC(=O)COc2ccccc2Br)cc1
T/C [5]: 95 % of control
T/C [15]: 101 % of control
T/C [6]: 97 % of control
T/C [16]: 96 % of control
T/C (dose: 400.0 mg/kg/injection, schedule: Q01DX009 (ip), vehicle: Klucel (hydroxypropylcellulose) (HPC)): 93 % of control
T/C [17]: 93 % of control

Cc1no[n+]([O-])c1C(=O)N(C)C
T/C [1]: 95 % of control
T/C [2]: 95 % of control
T/C [3]: 95 % of control

CNC(=S)n1ncnc1N
T/C (dose: 25.0 mg/kg/injection, schedule: Q01DX009 (ip), vehicle: saline): 102 % of control
T/C [18]: 114 % of control
T/C [19]: 109 % of control
T/C [20]: 104 % of control

CC(C)(C)C(=O)NCc1ccccc1
T/C [21]: 100 % of control
T/C [22]: 96 % of control
T/C [23]: 96 % of control

Nc1nc[nH]c1C(=O)NO
T/C [7]: 100 % of control
T/C [12]: 103 % of control
T/C [14]: 92 % of control

CC(=O)OCCC/C(=C\c1ccc(N(C)C)cc1)[N+](=O)[O-]
T/C [10]: 91 % of control
T/C [11]: 91 % of control
T/C [13]: 98 % of control

O=[N+]([O-])c1ccc(Cl)c(CNc2ncnc3nc[nH]c23)c1
T/C (dose: 100.0 mg/kg/injection, schedule: Q04DX003 (ip), vehicle: saline with Tween-80): 92 % of control
T/C (dose: 200.0 mg/kg/injection, schedule: Q04DX003 (ip), vehicle: saline with Tween-80): 93 % of control
T/C (dose: 400.0 mg/kg/injection, schedule: Q04DX003 (ip), vehicle: saline with Tween-80): 106 % of control

Nc1ncnc2nc(-c3ccc(CNC(=O)CCc4ccc(S(=O)(=O)F)cc4)cc3)[nH]c12
T/C [21]: 89 % of control
T/C [22]: 89 % of control
T/C [23]: 89 % of control

Cc1nc2c(ncn2C2OC(CO)C(O)C2O)c(=O)[nH]1 (stereo unspecified)
T/C (dose: 100.0 mg/kg/injection, schedule: Q01DX005 (ip), vehicle: saline): 103 % of control
T/C (dose: 200.0 mg/kg/injection, schedule: Q01DX005 (ip), vehicle: saline): 93 % of control

Clc1ccccc1/C=N/Nc1nnc(N/N=C/c2ccccc2Cl)c2ccccc12
T/C (dose: 50.0 mg/kg/injection, schedule: Q01DX001 (ip), vehicle: carboxymethylcellulose (CMC)): 95 % of control
T/C [10]: 89 % of control
T/C [11]: 89 % of control
T/C [13]: 89 % of control

CCOC(CN(C(C)=O)C1(c2ccc(OC)c(OC)c2)C(=O)c2ccccc2C1=O)OCC
T/C [24]: 110 % of control
T/C [25]: 105 % of control
T/C [26]: 98 % of control

O=C1C=C(O)C2=C(CCCC2)C1=O
T/C (dose: 100.0 mg/kg/injection, schedule: Q01DX001 (ip), vehicle: water): 96 % of control

CN(CC(C)(C)C=O)C(=O)c1ccccc1
T/C [20]: 96 % of control
T/C [27]: 103 % of control
T/C [28]: 100 % of control

Cc1cccc(OCC(O)CN2CCN(c3ccccc3)CC2)c1 (stereo unspecified)
T/C [4]: 104 % of control
T/C [5]: 101 % of control
T/C [6]: 115 % of control

CCN(CC)CCCC#CCN1CCOCC1
T/C [18]: 101 % of control
T/C [19]: 93 % of control
T/C [20]: 103 % of control
T/C [29]: 93 % of control
T/C [27]: 109 % of control

CC(=O)CC(C)(C)c1ccccc1
T/C [24]: 100 % of control
T/C [19]: 103 % of control
T/C [20]: 103 % of control
T/C [25]: 95 % of control
T/C [29]: 101 % of control
T/C [27]: 100 % of control
T/C [26]: 94 % of control
T/C [28]: 111 % of control

O=C(COc1cc(Cl)c(Cl)cc1Cl)OCCN(CCOC(=O)COc1cc(Cl)c(Cl)cc1Cl)C(=O)COc1ccc(Cl)cc1
T/C [8]: 92 % of control
T/C [9]: 92 % of control
T/C (dose: 400.0 mg/kg/injection, schedule: Q01DX009 (ip), vehicle: other): 102 % of control

Cc1ccc2c(c1)C(c1ccccc1)(c1ccccc1)N(c1ccccc1)S2(=O)=O
T/C [10]: 94 % of control
T/C [11]: 91 % of control
T/C [13]: 100 % of control

N#C/C(=C/c1ccc(O)cc1)C(=O)O
T/C [15]: 96 % of control
T/C [16]: 94 % of control
T/C [17]: 94 % of control
